target: T1, NK-1 receptor (Homo sapiens, UniProt P25103); assay: NK-1 Receptor Binding Assay (125I-labeled substance P, IM9 cells); conditions: @ 1 μM
T1 construct: endogenous in cells; host or cells: IM9 cells (human cell line), whole cells
Protocol: The biological activity of the compounds of the present invention was evaluated employing an initial screening assay which rapidly and accurately measured the binding of the tested compound to known NK-1 and NK-2 receptor sites. Assays useful for evaluating tachykinin receptor antagonists are well known in the art.
NK-1 Receptor Binding Assay
Radioreceptor binding assays were performed using a derivative of a previously published protocol.
The IM9 cell line is a well-characterized and readily available human cell line.
The reaction was terminated by filtration through a glass fiber filter harvesting system using filters previously soaked for 20 minutes in 0.1% polyethylenimine. Specific binding of labeled substance P was determined in the presence of 20 nM unlabeled ligand.

T1 sequence (P25103 whole entry): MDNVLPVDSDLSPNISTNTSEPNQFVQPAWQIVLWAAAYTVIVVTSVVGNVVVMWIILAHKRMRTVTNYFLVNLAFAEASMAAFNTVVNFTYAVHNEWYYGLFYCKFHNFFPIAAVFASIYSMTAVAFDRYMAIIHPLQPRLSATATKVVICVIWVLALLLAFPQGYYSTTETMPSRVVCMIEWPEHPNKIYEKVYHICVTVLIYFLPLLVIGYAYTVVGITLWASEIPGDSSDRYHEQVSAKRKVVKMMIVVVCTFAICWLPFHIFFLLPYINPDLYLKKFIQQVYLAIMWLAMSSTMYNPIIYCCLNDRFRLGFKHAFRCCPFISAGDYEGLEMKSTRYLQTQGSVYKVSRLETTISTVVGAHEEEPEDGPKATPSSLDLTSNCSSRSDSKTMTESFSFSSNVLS

Row | NK-1 percent inhibition of binding [% @] | SMILES
1 | 16 | COc1ccccc1CN(C[C@H](Cc1c[nH]c2ccccc12)NC(=O)OCc1ccccc1)C(C)=O [Example 93]
2 | 14 | COc1ccccc1CN(CC(C)(Cc1c[nH]c2ccccc12)NC(=O)CBr)C(=O)OC(C)(C)C (centres unmarked) [Example 134]

Row | SMILES | NK-1 percent inhibition of binding [% @]
3 | COc1ccccc1CNCC(Cc1c[nH]c2ccccc12)NC(=O)CN1CCN(c2ccccc2)CC1 (centres unmarked) [Example 6] | 62

same assay, conditions: @ 1 μM; read-out: NK-1 percent inhibition of binding

Row | inhibition at 1 µM [%] | SMILES
4 | 45 | NCC(Cc1c[nH]c2ccccc12)NC(=O)CN1CCN(c2ccccc2)CC1 (centres unmarked) [Example 150, 1-amino-3-(1H-indol-3-yl)-2-[N-(2-((4-phenyl)piperazin-1-yl)acetyl)amino]propane]

same assay, conditions: @ 5 μM

Row | NK-1 percent inhibition of binding [% @] | SMILES
5 | 46 | NCC(NC(c1ccccc1)(c1ccccc1)c1ccccc1)c1ccc(Cl)c(Cl)c1 (centres unmarked) [Example 172]

same assay, conditions: inhibits fifty percent of binding of 125I-substance P to IM9 cells

Row | SMILES | IC50 [nM]
6 | O=C(CN1CCN(c2ccccc2)CC1)NC(CNCc1ccccc1Cl)Cc1c[nH]c2ccccc12 (centres unmarked) [Example 2, 1-[N-(2-chlorobenzyl)amino]-3-(1H-indol-3-yl)-2-[N-(2-((4-phenyl)piperazin-1-yl)acetyl)amino]propane] | 36
7 | O=C(CN1CCN(c2ccccc2)CC1)NC(CNCc1ccccc1C(F)(F)F)Cc1c[nH]c2ccccc12 (centres unmarked) [Example 3] | 29
8 | COc1ccccc1CNC[C@@H](Cc1c[nH]c2ccccc12)NC(=O)CN1CCN(c2ccccc2)CC1 [Example 5] | 62
9 | COc1cccc(CNCC(Cc2c[nH]c3ccccc23)NC(=O)CN2CCN(c3ccccc3)CC2)c1 (centres unmarked) [Example 7] | 230
10 | COc1ccc(CNCC(Cc2c[nH]c3ccccc23)NC(=O)CN2CCN(c3ccccc3)CC2)cc1 (centres unmarked) [Example 8] | 130
11 | CC(=O)N(Cc1ccccc1Cl)CC(Cc1c[nH]c2ccccc12)NC(=O)CN1CCN(c2ccccc2)CC1 (centres unmarked) [Example 13] | 1.3
12 | CC(=O)N(Cc1ccccc1C(F)(F)F)CC(Cc1c[nH]c2ccccc12)NC(=O)CN1CCN(c2ccccc2)CC1 (centres unmarked) [Example 15] | 2.1
13 | CCCCN(CC(Cc1c[nH]c2ccccc12)NC(=O)CN1CCN(c2ccccc2)CC1)C(C)=O (centres unmarked) [Example 39] | 139
14 | CC(=O)N(Cc1ccccc1Cl)CC(Cc1c[nH]c2ccccc12)NC(=O)CN1CCC(N2CCCCC2)CC1 (centres unmarked) [Example 48] | 0.24
15 | CC(=O)N(Cc1ccccc1Cl)CC(Cc1c[nH]c2ccccc12)NC(=O)CN1CCC(N2CCCCC2)CC1 (centres unmarked) [Example 49] | 135
16 | COc1ccccc1CN(CC(Cc1c[nH]c2ccccc12)NC(=O)CBr)C(C)=O (centres unmarked) [Example 55] | 71
17 | COc1ccccc1CN(CC(Cc1c[nH]c2ccccc12)NC(=O)CSc1ccccc1)C(C)=O (centres unmarked) [Example 57] | 150
18 | COc1ccccc1CN(CC(Cc1c[nH]c2ccccc12)NC(=O)CN1CCN(C(C)C)CC1)C(C)=O (centres unmarked) [Example 73] | 0.99
19 | CC(=O)N(Cc1ccccc1Cl)CC(Cc1c[nH]c2ccccc12)NC(=O)CN1CCN(C(C)C)CC1 (centres unmarked) [Example 86] | 0.36
20 | CC(=O)N(Cc1ccccc1Cl)CC(Cc1c[nH]c2ccccc12)NC(=O)CN1CCN(C2CCCCC2)CC1 (centres unmarked) [Example 87] | 0.77
21 | COc1ccccc1CN(CC(Cc1c[nH]c2ccccc12)NC(=O)CCc1ccccc1)C(C)=O (centres unmarked) [Example 90] | 65
22 | COc1ccccc1CN(CC(Cc1c[nH]c2ccccc12)NC(=O)CCc1ccccc1)C(C)=O (centres unmarked) [Example 91] | 3000

Further lines, results first:

Row | IC50 [nM] | SMILES
23 | 97.2 | COc1ccccc1CN(CC(Cc1c[nH]c2ccccc12)NC(=O)OCc1ccccc1)C(C)=O (centres unmarked) [Example 92]
24 | 34.4 | COc1ccccc1CN(C[C@@H](Cc1c[nH]c2ccccc12)NC(=O)CCC(=O)c1ccccc1)C(C)=O [Example 96]
25 | 1300 | COc1ccccc1CN(C[C@H](Cc1c[nH]c2ccccc12)NC(=O)CCC(=O)c1ccccc1)C(C)=O [Example 97]
26 | 270 | COc1ccccc1CNCC(Cc1c[nH]c2ccc(OCc3ccccc3)cc12)NC(=O)CN1CCN(c2ccccc2)CC1 (centres unmarked) [Example 112]
27 | 15.4 | COc1ccccc1CN(CC(Cc1c[nH]c2c(C)cccc12)NC(=O)CN1CCN(c2ccccc2)CC1)C(C)=O (centres unmarked) [Example 115]
28 | 33 | COc1ccc2[nH]cc(CC(CN(Cc3ccccc3OC)C(C)=O)NC(=O)CN3CCN(c4ccccc4)CC3)c2c1 (centres unmarked) [Example 117]
29 | 310 | COc1ccccc1CN(CC(Cc1c[nH]c2ccc(OCc3ccccc3)cc12)NC(=O)CN1CCN(c2ccccc2)CC1)C(C)=O (centres unmarked) [Example 118]
30 | 2500 | COc1ccccc1CNCC(Cc1c[nH]c2ccc(Br)cc12)NC(=O)CN1CCC(N2CCCCC2)CC1 (centres unmarked) [Example 120]
31 | 850 | COc1ccc2[nH]cc(CC(CNCc3ccccc3OC)NC(=O)CN3CCC(N4CCCCC4)CC3)c2c1 (centres unmarked) [Example 121]
32 | 550 | COc1ccccc1CNCC(Cc1c[nH]c2ccc(OCc3ccccc3)cc12)NC(=O)CN1CCC(N2CCCCC2)CC1 (centres unmarked) [Example 122]
33 | 1.1 | COc1ccccc1CN(CC(Cc1c[nH]c2c(C)cccc12)NC(=O)CN1CCC(N2CCCCC2)CC1)C(C)=O (centres unmarked) [Example 128]
34 | 8.5 | COc1ccccc1CN(CC(Cc1c[nH]c2ccc(Br)cc12)NC(=O)CN1CCC(N2CCCCC2)CC1)C(C)=O (centres unmarked) [Example 129]
35 | 19 | COc1ccc2[nH]cc(CC(CN(Cc3ccccc3OC)C(C)=O)NC(=O)CN3CCC(N4CCCCC4)CC3)c2c1 (centres unmarked) [Example 130]
36 | 67 | COc1ccccc1CN(CC(Cc1c[nH]c2ccc(OCc3ccccc3)cc12)NC(=O)CN1CCC(N2CCCCC2)CC1)C(C)=O (centres unmarked) [Example 131]
37 | 0.7 | COc1ccccc1CN(CC(Cc1c[nH]c2cc(F)ccc12)NC(=O)CN1CCC(N2CCCCC2)CC1)C(C)=O (centres unmarked) [Example 131a]
38 | 4.2 | COc1ccccc1CN(CC(C)(Cc1c[nH]c2ccccc12)NC(=O)CN1CCC(N2CCCCC2)CC1)C(C)=O (centres unmarked) [Example 132]
39 | 11.6 | COc1ccccc1CN(CC(C)(Cc1c[nH]c2ccccc12)NC(=O)CN1CCN(c2ccccc2)CC1)C(C)=O (centres unmarked) [Example 133]
40 | 7.9 | COc1ccccc1CN(CC(Cc1csc2ccccc12)NC(=O)CN1CCN(c2ccccc2)CC1)C(C)=O (centres unmarked) [Example 143]
41 | 1.2 | COc1ccccc1CN(CC(Cc1csc2ccccc12)NC(=O)CN1CCC(N2CCCCC2)CC1)C(C)=O (centres unmarked) [Example 149]

From patent US6869957B1, “Non-peptide tachykinin receptor antagonists” (Eli Lilly and Company, priority 1993, dated 2005)
